Three compounds from patent EP3171885B1, “PEPTIDE HYDROLYSATE OF SNAILS, PEPTIDE FRACTIONS, PRODUCTION METHOD, USE AND COMPOSITIONS FOR INHIBITING THE ANGIOTENSIN CONVERTING ENZYME” (Drevet, Pascal, priority 2014, dated 2016) can be followed below.

Like-named read-outs stand apart in the source and are kept apart here. Where a SMILES comes first, the peptide text is derived from it.

The assay concerns the target enzyme de conversion de l'angiotensine (ECA) (Homo sapiens, UniProt P12821). Briefly: biochemical. The procedure: Brièvement, cette méthode repose sur l'hydrolyse du substrat Hippuryl-L-Histidyl-L-Leucine (HHL) par l'ECA pour produire de l'acide hippurique (HA) et de l'Histydil-Leucine. Après incubation à 37°C pendant 30 minutes dans du tampon borate de sodium pH 8,3, la réaction est arrêtée par addition de HCI. La séparation du substrat HHL et du produit HA est réalisé par chromatographie liquide haute pression en phase inversée (RP-HPLC) sur une colonne C18 (Kinetex). L'élution se fait par un mélange d'eau (75% v/v) et d'acétonitrile (25% V/V).
La comparaison entre la concentration de HA produite pour chaque concentration d'échantillon avec celle obtenue sans addition de peptide permet la détermination de l'IC50.
A titre de témoin positif, le captopril est également testé en parallèle de l'hydrolysat, des fractions et des peptides. Le témoin négatif est le substrat HHL seul, sans ECA, dilué dans du tampon borate pH 8,3. L'échantillon est le peptide, la fraction ou l'hydrolysat total à tester.
Le pourcentage d'inhibition de l'ECA est calculé selon la formule suivante : Pourcentage d'inhibition ECA (%) = (ASCHA ([…])−ASCHA (Echantillon))/(ASCHA ([…])−ASCHA (HHL)) × 100 [formula]

The mark [1] stands for this setting: substrate HHL 5 mM, 37°C, 30 minutes, sodium borate buffer pH 8,3, detection at 228 nm, read-out: IC50 (converted).

enzyme de conversion de l'angiotensine (ECA), sequence (P12821 30-1306): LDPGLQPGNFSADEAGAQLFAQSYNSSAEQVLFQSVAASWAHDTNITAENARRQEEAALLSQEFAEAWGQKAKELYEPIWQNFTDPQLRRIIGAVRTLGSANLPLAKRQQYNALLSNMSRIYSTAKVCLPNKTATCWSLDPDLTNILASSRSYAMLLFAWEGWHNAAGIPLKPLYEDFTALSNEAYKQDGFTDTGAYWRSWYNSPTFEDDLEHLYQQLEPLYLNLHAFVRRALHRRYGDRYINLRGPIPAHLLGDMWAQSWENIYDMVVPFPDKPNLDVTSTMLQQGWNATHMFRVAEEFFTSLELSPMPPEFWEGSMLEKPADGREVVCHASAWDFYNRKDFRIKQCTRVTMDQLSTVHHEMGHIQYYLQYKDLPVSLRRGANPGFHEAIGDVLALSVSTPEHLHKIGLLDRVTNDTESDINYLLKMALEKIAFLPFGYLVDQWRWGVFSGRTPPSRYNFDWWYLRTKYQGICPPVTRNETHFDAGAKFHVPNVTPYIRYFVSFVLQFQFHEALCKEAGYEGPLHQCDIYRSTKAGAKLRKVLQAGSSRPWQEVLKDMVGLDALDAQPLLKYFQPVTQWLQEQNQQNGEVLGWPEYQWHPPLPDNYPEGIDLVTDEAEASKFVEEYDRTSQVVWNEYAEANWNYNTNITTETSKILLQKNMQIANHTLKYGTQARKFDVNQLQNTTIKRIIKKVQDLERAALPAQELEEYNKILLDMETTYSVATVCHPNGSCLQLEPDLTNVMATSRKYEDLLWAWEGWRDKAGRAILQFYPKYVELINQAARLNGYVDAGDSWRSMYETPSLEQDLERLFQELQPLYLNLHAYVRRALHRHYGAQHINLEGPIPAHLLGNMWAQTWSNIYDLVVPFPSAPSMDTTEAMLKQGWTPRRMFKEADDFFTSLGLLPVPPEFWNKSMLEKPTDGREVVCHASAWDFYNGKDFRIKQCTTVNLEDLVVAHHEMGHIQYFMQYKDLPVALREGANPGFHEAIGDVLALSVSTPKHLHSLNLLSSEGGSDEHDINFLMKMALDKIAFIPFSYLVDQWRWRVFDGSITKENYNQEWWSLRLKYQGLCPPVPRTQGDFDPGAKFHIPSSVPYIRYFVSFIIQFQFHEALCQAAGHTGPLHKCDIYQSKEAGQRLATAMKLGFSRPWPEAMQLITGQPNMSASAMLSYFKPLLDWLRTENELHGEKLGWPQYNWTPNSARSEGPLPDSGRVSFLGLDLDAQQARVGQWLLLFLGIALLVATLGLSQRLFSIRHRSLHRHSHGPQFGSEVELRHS

In the case of `CC(C)[C@H](N)C(=O)N[C@@H](Cc1ccc(O)cc1)C(=O)O` [VY, Valine-Tyrosine] (H-Val-Tyr-OH), the half-inhibitory concentration (IC50) (usually the midpoint of a concentration-inhibition curve) under setting [1] is 40.3 µM. Consider `N[C@@H](CC(=O)O)C(=O)N[C@@H](Cc1ccccc1)C(=O)O` [DF, Acide Aspartique -Phénylalanine] (H-Asp-Phe-OH), for which the IC50 under setting [1] was 1280 µM.

`N[C@@H](CO)C(=O)N[C@@H](Cc1ccccc1)C(=O)O` [SF, Serine-Phénylalanine] gave an IC50 of 516 µM.
